# According to ChEMBL document CHEMBL3856241, “Discovery of novel 5-hydroxy-4-pyridone-3-carboxy acids as potent inhibitors of influenza Cap-dependent endonuclease” (Bioorg Med Chem Lett, 2016):
# Experiment: Inhibition of Influenza A virus A/WSN/33(H1N1) cap-dependent endonuclease using 3'-BHQ2 labeled 30-mer RNA as substrate after 60 mins by fluorescence assay
# Design: species or system Influenza A virus (A/WSN/1933(H1N1))
# Details: not given
row,SMILES,IC50
1,O=C(O)c1cn(CC2(c3ccc4cccnc4c3)CCCC2)cc(O)c1=O,16.4 nM
2,O=C(O)c1cn(Cc2ccc(F)cc2)cc(O)c1=O,3230 nM
3,O=c1ccn(Cc2ccc(F)cc2)cc1O,> 500000 nM
4,Cn1cc(C2(Cn3cc(O)c(=O)c(C(=O)O)c3)CCCC2)c2ccccc21,16.1 nM
5,O=C(O)c1cn(CC2(c3ccccc3)CCCCC2)cc(O)c1=O,61.8 nM
6,O=C(O)c1cn(CC2(c3ccc4ccccc4c3)CCCC2)cc(O)c1=O,28.4 nM
7,O=C(O)c1cn(CC2(c3ccc4c(c3)OCO4)CCCC2)cc(O)c1=O,16.3 nM
8,O=C(O)c1cn(CCc2ccc(-c3ccc(F)cc3)cc2)cc(O)c1=O,3730 nM
9,O=C(O)c1cn(CCc2ccccc2Cl)cc(O)c1=O,242 nM
10,O=C(O)c1cn(CC2(c3ccccc3)CCC2)cc(O)c1=O,105 nM
11,O=C(O)c1cn(CCc2cccc(Cl)c2)cc(O)c1=O,430 nM
12,O=C(O)c1cn(CC2(c3ccccc3)CCCC2)cc(O)c1=O,60.7 nM
13,O=C(O)c1cn(CC2(c3ccnc(-n4cccn4)c3)CCCC2)cc(O)c1=O,17.9 nM
14,O=C(O)c1cn(CCCc2ccccc2)cc(O)c1=O,1420 nM
15,O=C(O)c1cn(CC2(c3ccc(Cl)cc3)CCCC2)cc(O)c1=O,15.6 nM
16,O=C(O)c1cn(CC2(c3ccccc3Cl)CCCC2)cc(O)c1=O,36.1 nM
17,O=C(O)c1cn(Cc2ccccc2)cc(O)c1=O,2100 nM
18,O=C(O)c1cn(CC2(c3cccc(Oc4ccccc4)c3)CCCC2)cc(O)c1=O,43 nM
19,O=C(O)c1cn(CCc2ccc(Cl)cc2)cc(O)c1=O,824 nM
20,O=C(O)c1cn(CC2(c3ccccc3)CC2)cc(O)c1=O,402 nM
21,Cn1cc(C2(Cn3cc(O)c(=O)c(C(=O)O)c3)CCCC2)c2ncccc21,46.3 nM
22,O=C(O)c1cn(CC2(c3cccc(Cl)c3)CCCC2)cc(O)c1=O,9.2 nM
23,O=C(O)c1cn(Cc2ccc(F)cc2)ccc1=O,> 500000 nM
24,O=C(O)c1cn(CCc2ccccc2)cc(O)c1=O,714 nM
25,O=C(O)c1cn(CC2(n3ccc4cccnc43)CCCC2)cc(O)c1=O,5.12 nM
26,O=C(O)c1cn(CCCCc2ccccc2)cc(O)c1=O,2810 nM
27,O=C(O)c1cn(-c2ccc(F)cc2)cc(O)c1=O,6510 nM
28,O=C(O)c1cn(CCc2ccc(O)cc2)cc(O)c1=O,2490 nM

# Experiment: Antiviral activity against Influenza A virus A/WSN/33(H1N1) infected in MDCK cells assessed as inhibition of virus-induced cytopathic effect after 3 days by WST-8 assay
# Format: functional, cell-based, Influenza A virus (A/WSN/1933(H1N1))
# Details: 72 h
row,SMILES,EC50
1,O=C(O)c1cn(CC2(n3ccc4cccnc43)CCCC2)cc(O)c1=O,201 nM
